Experimental data from publication PMC8196580, “Identification of Kaurane-Type Diterpenes as Inhibitors of Leishmania Pteridine Reductase I” (Molecules, 2021).
Read-outs that look alike come from different tables or passages of the source.

Columns and labels:
[1] = system: L. major; experiment: ChEMBL dataset of pIC50 values against L. major used for the RF model (Table S1); format: cell-based, Leishmania major; note: call rule not given here
Text: From the ChEMBL database (https://www.ebi.ac.uk/chembl/, accessed on 10 January 2021), we selected a diverse set of 1085 structures that were initially classified according to their predicted activity against L. major.
Excluding these structures minimized the differences in activity values resulting from errors and differences in experimental protocols. […] Standardizer software [JChem, version 16.11.28 (2016), calculation module developed by ChemAxon, https://www.chemaxon.com/, accessed on 20 January 2021] was used to canonize all simplified molecular-input line-entry system (SMILES) codes. After duplicate structures were removed, those with higher pIC50 values were eliminated, facilitating the generation of more restrictive models.

[2] = system: L. major; set-up: method as in ChEMBL; conditions: ref ChEMBL, cited from earlier work
[3] = Active/Inactive class assigned to the ChEMBL pIC50 value for Random forest model construction, ref ChEMBL
[4] = ChemBL structures with pIC50 values used for Random forest model construction, L. major
[5] = Active/Inactive class assigned to ChemBL structures for Random forest model construction (Table S1)
[6] = ChemBL structures with pIC50 values used for Random forest model construction (Table S1)

## COc1ccc(/C=N/NC(=O)c2ccccc2OC)c(O)c1 [CHEMBL2382050]
[1]; [3]
  Outcome: Inactive
[2]; [4]
  pIC50 Value: 4.88

## Cc1ccc2cc(C3CC(c4ccc(Cl)s4)=NN3)c(Cl)nc2c1 (stereo not drawn) [CHEMBL2236141]
[1]; [5]
  Outcome: Active
[2]; [6]
  pIC50 Value: 5.64

## CCC/C=C/C=C/c1nc2cccc(OC)c2n2cccc12 [CHEMBL3260213]
[1]; [5]
  Outcome: Active
[2]; [6]
  pIC50 Value: 5.41

## Cc1ccccc1/N=C/c1cn(C)c2ccccc12 [CHEMBL2071558]
[1]; [5]
  Outcome: Active
[2]; [6]
  pIC50 Value: 5.64

## COc1ccccc1C(=O)N/N=C/c1ccc(OC)c(O)c1I [CHEMBL2382052]
[1]; [3]
  Outcome: Inactive
[2]; [4]
  pIC50 Value: 4.20

## O=C(CCl)N1c2ccccc2Sc2ccccc21 [CHEMBL1651446]
[1]; [3]
  Outcome: Active
[2]; [4]
  pIC50 Value: 5.03

## O=C(c1ccc(Br)s1)N1CCN(c2nnc(-c3ccc([N+](=O)[O-])o3)s2)CC1 [CHEMBL458771]
[1]; [3]
  Outcome: Inactive
[2]; [4]
  pIC50 Value: 4.88

## COc1cc(/C=N\NC(N)=S)ccc1OCc1cn(CC(=O)c2ccc(Cl)cc2)nn1 [CHEMBL4164916]
[1]; [3]
  Outcome: Active
[2]; [4]
  pIC50 Value: 5.27

## CC1(O)CCCC2(C)Cc3c(O)ccc(O)c3CC12 (stereo not drawn) [CHEMBL255315]
[1]; [3]
  Outcome: Inactive
[2]; [4]
  pIC50 Value: 4.99

## O=[N+]([O-])c1ccc(-c2nnc(N3CCN(c4ccccc4)CC3)s2)s1 [CHEMBL382933]
[1]; [3]
  Outcome: Inactive
[2]; [4]
  pIC50 Value: 3.98

## CCc1ccc(Nc2ncnc3ccc([N+](=O)[O-])cc23)cc1 [CHEMBL3759644]
[1]; [3]
  Outcome: Inactive
[2]; [4]
  pIC50 Value: 4.42

## Cc1ccc(-c2nc3ccccc3[nH]2)o1 [CHEMBL2298017]
[1]; [5]
  Outcome: Active
[2]; [6]
  pIC50 Value: 5.37

## Cc1ccc2cc(/C=C/C(=O)c3ccc(I)s3)c(Cl)nc2c1 [CHEMBL1940860]
[1]; [5]
  Outcome: Active
[2]; [6]
  pIC50 Value: 5.72

## COc1ccc(-c2ccccc2)c2c1C(C)=N[C@H](C)C2 [CHEMBL1275787]
[1]; [3]
  Outcome: Inactive
[2]; [4]
  pIC50 Value: 4.00

## Cn1c([N+](=O)[O-])cnc1-c1nnc(N2CCN(C(=O)c3ccc(Cl)cc3)CC2)s1 [CHEMBL520958]
[1]; [3]
  Outcome: Inactive
[2]; [4]
  pIC50 Value: 4.37

## COc1ccccc1-c1nnc(-c2ccc(C(=O)N/N=C/c3ccccc3F)cc2)o1 [CHEMBL4060698]
[1]; [3]
  Outcome: Active
[2]; [4]
  pIC50 Value: 5.29

## O=C(/C=C/c1ccc(-n2ccnc2)cc1)c1ccc(Br)cc1 [CHEMBL570693]
[1]; [5]
  Outcome: Active
[2]; [6]
  pIC50 Value: 5.61

## O=C(/C=C/c1ccc(-n2ccnc2)cc1)c1c(Cl)cccc1Cl [CHEMBL571070]
[1]; [5]
  Outcome: Active
[2]; [6]
  pIC50 Value: 5.71

## COc1cc(COP(N)(=O)N(CCCl)CCCl)ccc1[N+](=O)[O-] (stereo not drawn) [CHEMBL1256966]
[1]; [3]
  Outcome: Inactive
[2]; [4]
  pIC50 Value: 4.52

## Cc1ccc2nc(CCC3CCCCC3)[nH]c2c1 [CHEMBL1255797]
[1]; [3]
  Outcome: Inactive
[2]; [4]
  pIC50 Value: 4.63

## COc1cc(OC)c2c(C)[n+](-c3ccc4scnc4c3)c(C)cc2c1.F[B-](F)(F)F [CHEMBL515117]
[1]; [3]
  Outcome: Inactive
[2]; [4]
  pIC50 Value: 4.00

## O=C(/C=C/C1=Cc2cc(Cl)ccc2OC1)c1ccc(Cl)cc1Cl [CHEMBL1097966]
[1]; [5]
  Outcome: Active
[2]; [6]
  pIC50 Value: 5.72

## COc1cc(OC)c2c(C)[n+](-c3ccc(C(C)C)cc3)c(C)cc2c1 [CHEMBL481022]
[1]; [5]
  Outcome: Active
[2]; [6]
  pIC50 Value: 5.70

## O=C(C(Cl)Cl)N1c2ccccc2Oc2ccccc21 [CHEMBL3759299]
[1]; [3]
  Outcome: Inactive
[2]; [4]
  pIC50 Value: 4.09

## CNc1ccc(Nc2c3ccccc3nc3ccccc23)cc1 [CHEMBL415467]
[1]; [5]
  Outcome: Active
[2]; [6]
  pIC50 Value: 5.82

## C#CCOc1ccc(/C=N/NC(N)=S)cc1OC [CHEMBL4159578]
[1]; [5]
  Outcome: Active
[2]; [6]
  pIC50 Value: 5.85

## C=CC(C)(C)c1cc(/C=C/C(=O)c2ccc(O)cc2)c(OC)cc1O [CHEMBL139702]
[1]; [3]
  Outcome: Inactive
[2]; [4]
  pIC50 Value: 4.85
